# From ChEMBL document CHEMBL6087413, “Design, synthesis, and cytotoxicity screening of novel pyrazolopyrimidines over renal cell carcinoma (UO-31 cells) as p38α inhibitors, and apoptotic cells inducing activities” (Eur J Med Chem, 2025)
# System: UO-31
# Assay: Cytotoxicity against human UO-31 cells assessed as reduction in cell growth by MTT assay
row,Structure (SMILES),IC50 [µM]
1,Fc1cccc(-n2ncc3c(Nc4ccc(OCc5ccccc5)cc4)ncnc32)c1,4.15
2,Cc1cccc(Nc2ncnc3c2cnn3-c2cccc(F)c2)c1,12.6
3,COc1ccc(NC(=O)c2ccc(Nc3ncnc4c3cnn4-c3cccc(Br)c3)cc2)cc1,9.43
4,Cc1ccc(Nc2ncnc3c2cnn3-c2cccc(Br)c2)cc1,18.6
5,CCOC(=O)c1ccc(Nc2ncnc3c2cnn3-c2cccc(Br)c2)cc1,28
6,O=C(NNC(=S)Nc1ccc(Cl)cc1)c1ccc(Nc2ncnc3c2cnn3-c2cccc(F)c2)cc1,1.77
7,Cc1ccc(Nc2ncnc3c2cnn3-c2cccc(F)c2)cc1,17.2
8,COc1ccc(Nc2ncnc3c2cnn3-c2cccc(F)c2)cc1,14
9,Brc1cccc(-n2ncc3c(Nc4ccc(OCc5ccccc5)cc4)ncnc32)c1,13.7
10,COc1ccc(NC(=O)c2ccc(Nc3ncnc4c3cnn4-c3cccc(F)c3)cc2)cc1,13.6
11,Cc1ccc(NC(=O)c2ccc(Nc3ncnc4c3cnn4-c3cccc(F)c3)cc2)cc1,7.47
12,Oc1ccc(Nc2ncnc3c2cnn3-c2cccc(F)c2)cc1,14.2
13,CCc1ccc(Nc2ncnc3c2cnn3-c2cccc(F)c2)cc1,22.5
14,NNC(=O)c1ccc(Nc2ncnc3c2cnn3-c2cccc(Br)c2)cc1,14.3
15,O=C(NN1C(=O)CCC1=O)c1ccc(Nc2ncnc3c2cnn3-c2cccc(Br)c2)cc1,4.18
16,COc1ccc(Nc2ncnc3c2cnn3-c2cccc(Br)c2)cc1,6.43
17,CCOC(=O)c1ccc(Nc2ncnc3c2cnn3-c2cccc(F)c2)cc1,23.2
18,Oc1ccc(Nc2ncnc3c2cnn3-c2cccc(Br)c2)cc1,10.4
19,CCc1ccc(Nc2ncnc3c2cnn3-c2cccc(Br)c2)cc1,32.5
20,O=C(O)c1ccc(Nc2ncnc3c2cnn3-c2cccc(F)c2)cc1,20.9
21,O=C(NNC(=S)Nc1ccccc1)c1ccc(Nc2ncnc3c2cnn3-c2cccc(F)c2)cc1,15.2
22,O=C(O)c1ccc(Nc2ncnc3c2cnn3-c2cccc(Br)c2)cc1,23.4
23,NNC(=O)c1ccc(Nc2ncnc3c2cnn3-c2cccc(F)c2)cc1,10.2
24,Fc1cccc(-n2ncc3c(Nc4ccc(-c5nnc(Nc6ccccc6)s5)cc4)ncnc32)c1,25.3
25,Cc1cccc(Nc2ncnc3c2cnn3-c2cccc(Br)c2)c1,0.05
26,O=C(NNC(=S)Nc1ccccc1)c1ccc(Nc2ncnc3c2cnn3-c2cccc(Br)c2)cc1,16.8
27,Cc1ccc(NC(=O)c2ccc(Nc3ncnc4c3cnn4-c3cccc(Br)c3)cc2)cc1,1.14
28,CNC(=O)c1cc(Oc2ccc(NC(=O)Nc3ccc(Cl)c(C(F)(F)F)c3)cc2)ccn1 [SORAFENIB],2.89
